Structures are written as SMILES.

Common to all, as to assay: In Vitro Kinase Assay
Common to all, as to details: pH 7

For one experiment, the target named is Insulin receptor (Homo sapiens, UniProt P06213). How it is done: (§1) Inhibition of kinase activity against a variety of recombinant kinases [FLT3, FLT3 D835Y, anaplastic lymphoma kinase (ALK), insulin receptor, and epidermal growthfactor receptor (EGFR)] was measured using homogeneous time-resolved fluorescence (HTRF) assays [Choi et al., Bioorg. Med. Chem. Lett., 20:2033-2037]. Assays consist of enzymes mixed with serially diluted compounds and peptide substrates in a kinase reaction buffer (250 mM HEPES (pH 7.0), 0.5 mM orthovanadate, 0.05% bovine serum albumin, 0.1% NaN3). Following the addition of reagents for detection, the TR-FRET signal was measured using an EnVision multi-label reader (Perkin Elmer, Waltham, MA).
Sequence of Insulin receptor (P06213 28-758 limits assumed): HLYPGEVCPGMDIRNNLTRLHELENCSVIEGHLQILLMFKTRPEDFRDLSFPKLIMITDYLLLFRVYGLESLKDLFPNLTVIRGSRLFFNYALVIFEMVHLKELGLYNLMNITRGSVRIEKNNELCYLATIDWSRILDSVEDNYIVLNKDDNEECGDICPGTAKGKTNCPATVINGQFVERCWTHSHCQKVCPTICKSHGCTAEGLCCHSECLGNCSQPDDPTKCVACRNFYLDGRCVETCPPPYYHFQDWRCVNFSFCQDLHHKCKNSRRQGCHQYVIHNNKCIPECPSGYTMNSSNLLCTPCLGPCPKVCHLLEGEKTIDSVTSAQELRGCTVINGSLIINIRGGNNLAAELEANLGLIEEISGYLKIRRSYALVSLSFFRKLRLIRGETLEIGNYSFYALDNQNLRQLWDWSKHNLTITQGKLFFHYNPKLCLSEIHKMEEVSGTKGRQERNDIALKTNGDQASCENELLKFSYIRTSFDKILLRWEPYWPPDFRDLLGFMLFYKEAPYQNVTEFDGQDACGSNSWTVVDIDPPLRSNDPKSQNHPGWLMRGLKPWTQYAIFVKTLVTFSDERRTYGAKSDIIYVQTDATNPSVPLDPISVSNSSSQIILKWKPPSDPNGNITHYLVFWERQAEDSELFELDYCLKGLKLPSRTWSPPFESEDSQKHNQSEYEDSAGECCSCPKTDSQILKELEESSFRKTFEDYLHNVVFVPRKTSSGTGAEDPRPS
Sequence of Insulin receptor (P06213 763-1382 limits assumed): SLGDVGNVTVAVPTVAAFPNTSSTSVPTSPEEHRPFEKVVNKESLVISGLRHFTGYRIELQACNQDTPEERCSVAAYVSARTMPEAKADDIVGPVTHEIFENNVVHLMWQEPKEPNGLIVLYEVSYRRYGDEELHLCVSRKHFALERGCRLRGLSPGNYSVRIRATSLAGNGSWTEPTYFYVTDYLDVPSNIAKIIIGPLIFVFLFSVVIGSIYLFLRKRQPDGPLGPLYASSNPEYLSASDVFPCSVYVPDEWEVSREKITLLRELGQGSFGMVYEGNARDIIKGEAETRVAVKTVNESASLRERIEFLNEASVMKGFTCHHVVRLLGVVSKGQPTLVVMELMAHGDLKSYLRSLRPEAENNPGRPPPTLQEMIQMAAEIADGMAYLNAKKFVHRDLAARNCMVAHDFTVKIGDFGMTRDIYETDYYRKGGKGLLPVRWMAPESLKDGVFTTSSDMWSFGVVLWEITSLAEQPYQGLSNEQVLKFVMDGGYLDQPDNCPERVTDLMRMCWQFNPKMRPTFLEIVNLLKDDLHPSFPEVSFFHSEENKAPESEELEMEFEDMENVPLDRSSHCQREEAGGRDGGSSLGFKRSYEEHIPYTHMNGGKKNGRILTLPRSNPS

The target of experiment [1] is Epidermal growth factor receptor (Homo sapiens, UniProt P00533). How it is done:
as §1

Experiment [2] concerns the target ALK tyrosine kinase receptor (Homo sapiens, UniProt Q9UM73). On the procedure:
as §1

Sequence of Epidermal growth factor receptor (P00533 whole entry): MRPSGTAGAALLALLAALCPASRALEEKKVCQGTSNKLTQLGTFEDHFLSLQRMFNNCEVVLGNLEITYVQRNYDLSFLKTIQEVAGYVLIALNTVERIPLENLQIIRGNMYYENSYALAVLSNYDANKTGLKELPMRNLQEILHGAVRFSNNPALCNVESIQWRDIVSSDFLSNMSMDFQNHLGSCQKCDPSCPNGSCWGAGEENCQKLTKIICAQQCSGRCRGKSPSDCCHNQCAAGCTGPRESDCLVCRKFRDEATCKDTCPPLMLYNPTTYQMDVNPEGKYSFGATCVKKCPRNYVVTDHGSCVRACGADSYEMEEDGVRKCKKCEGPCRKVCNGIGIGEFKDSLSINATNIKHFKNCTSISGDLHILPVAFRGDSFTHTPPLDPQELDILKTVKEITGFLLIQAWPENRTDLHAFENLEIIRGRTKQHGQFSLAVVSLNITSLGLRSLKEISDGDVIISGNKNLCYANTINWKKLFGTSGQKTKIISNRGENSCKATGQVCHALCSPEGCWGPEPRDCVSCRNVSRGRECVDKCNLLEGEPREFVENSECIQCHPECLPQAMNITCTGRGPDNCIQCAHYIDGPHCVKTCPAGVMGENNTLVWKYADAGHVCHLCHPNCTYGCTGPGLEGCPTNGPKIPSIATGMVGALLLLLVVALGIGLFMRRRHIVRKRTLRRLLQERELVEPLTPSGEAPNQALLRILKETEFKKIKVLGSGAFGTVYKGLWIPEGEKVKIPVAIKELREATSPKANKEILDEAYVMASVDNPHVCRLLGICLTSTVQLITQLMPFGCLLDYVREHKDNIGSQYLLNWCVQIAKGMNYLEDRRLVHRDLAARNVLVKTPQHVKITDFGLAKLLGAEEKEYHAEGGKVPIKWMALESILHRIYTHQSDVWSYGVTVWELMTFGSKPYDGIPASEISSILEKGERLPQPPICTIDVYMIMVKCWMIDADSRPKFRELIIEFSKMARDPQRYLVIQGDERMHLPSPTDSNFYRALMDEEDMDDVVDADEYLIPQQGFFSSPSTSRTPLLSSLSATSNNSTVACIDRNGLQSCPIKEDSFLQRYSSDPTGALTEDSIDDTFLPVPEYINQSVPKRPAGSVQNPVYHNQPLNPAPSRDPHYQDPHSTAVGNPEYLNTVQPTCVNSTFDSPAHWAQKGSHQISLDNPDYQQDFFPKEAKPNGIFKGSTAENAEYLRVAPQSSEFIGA
Sequence of ALK tyrosine kinase receptor (Q9UM73 whole entry): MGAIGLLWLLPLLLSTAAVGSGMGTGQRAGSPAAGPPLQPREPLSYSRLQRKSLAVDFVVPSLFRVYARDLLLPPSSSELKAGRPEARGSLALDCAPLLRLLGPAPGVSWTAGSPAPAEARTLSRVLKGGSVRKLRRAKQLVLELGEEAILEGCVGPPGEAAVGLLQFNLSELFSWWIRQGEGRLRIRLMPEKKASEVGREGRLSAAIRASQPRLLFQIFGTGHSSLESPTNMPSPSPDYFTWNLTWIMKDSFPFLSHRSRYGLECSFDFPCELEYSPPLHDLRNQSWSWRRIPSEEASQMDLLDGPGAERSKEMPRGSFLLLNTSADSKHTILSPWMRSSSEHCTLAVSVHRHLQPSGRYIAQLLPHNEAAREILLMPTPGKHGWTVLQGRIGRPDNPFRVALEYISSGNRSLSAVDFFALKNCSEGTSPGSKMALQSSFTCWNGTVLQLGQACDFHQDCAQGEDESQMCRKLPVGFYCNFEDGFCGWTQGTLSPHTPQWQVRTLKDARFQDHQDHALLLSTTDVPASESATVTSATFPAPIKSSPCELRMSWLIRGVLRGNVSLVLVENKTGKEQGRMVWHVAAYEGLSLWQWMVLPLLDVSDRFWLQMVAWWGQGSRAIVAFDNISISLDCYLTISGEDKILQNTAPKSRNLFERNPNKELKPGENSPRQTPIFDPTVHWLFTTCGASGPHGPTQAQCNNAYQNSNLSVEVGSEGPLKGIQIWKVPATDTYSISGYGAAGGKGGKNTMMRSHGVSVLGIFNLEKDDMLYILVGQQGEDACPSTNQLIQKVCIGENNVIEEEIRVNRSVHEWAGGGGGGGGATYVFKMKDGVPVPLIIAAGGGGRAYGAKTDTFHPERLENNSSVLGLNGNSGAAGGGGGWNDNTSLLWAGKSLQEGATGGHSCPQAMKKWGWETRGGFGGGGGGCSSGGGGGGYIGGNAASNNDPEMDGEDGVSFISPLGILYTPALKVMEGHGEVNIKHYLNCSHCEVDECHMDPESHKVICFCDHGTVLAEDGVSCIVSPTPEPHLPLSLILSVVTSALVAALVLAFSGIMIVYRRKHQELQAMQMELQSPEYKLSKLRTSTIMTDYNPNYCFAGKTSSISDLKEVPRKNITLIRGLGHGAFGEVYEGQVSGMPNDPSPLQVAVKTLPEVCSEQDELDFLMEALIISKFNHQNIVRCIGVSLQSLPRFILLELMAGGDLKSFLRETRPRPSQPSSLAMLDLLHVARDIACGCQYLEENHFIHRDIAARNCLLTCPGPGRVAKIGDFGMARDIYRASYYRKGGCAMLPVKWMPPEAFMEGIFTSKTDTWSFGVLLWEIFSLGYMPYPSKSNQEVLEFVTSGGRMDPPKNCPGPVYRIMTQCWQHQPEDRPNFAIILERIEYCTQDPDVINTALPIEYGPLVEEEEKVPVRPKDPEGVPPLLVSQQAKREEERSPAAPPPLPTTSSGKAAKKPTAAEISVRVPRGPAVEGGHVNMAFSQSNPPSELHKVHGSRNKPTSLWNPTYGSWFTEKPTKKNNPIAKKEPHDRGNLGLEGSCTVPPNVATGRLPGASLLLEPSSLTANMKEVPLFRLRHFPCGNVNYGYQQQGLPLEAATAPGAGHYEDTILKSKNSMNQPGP

Regarding `O=c1c2cc(O)c(O)cc2oc2cc(O)c(C3O[C@H](CO)[C@@H](O)[C@H](O)[C@H]3O)c(O)c12` (stereo partly drawn) [Mangiferin], the results for the IC50 (against Insulin receptor; in experiment [1]; in experiment [2]) were over 10 µM, over 10 µM and 810 nM, respectively.

(Values after BindingDB's records for doi:10.3109/14756366.2010.515215 (Gyeongsang National University, 2011).)
